≈ marks a conversion by molar mass, not a printed value.
Experiments:
[1] = target: T1, Nuclear receptor subfamily 1 group I member 2 (Homo sapiens, UniProt O75469)
T1 sequence (O75469 whole entry): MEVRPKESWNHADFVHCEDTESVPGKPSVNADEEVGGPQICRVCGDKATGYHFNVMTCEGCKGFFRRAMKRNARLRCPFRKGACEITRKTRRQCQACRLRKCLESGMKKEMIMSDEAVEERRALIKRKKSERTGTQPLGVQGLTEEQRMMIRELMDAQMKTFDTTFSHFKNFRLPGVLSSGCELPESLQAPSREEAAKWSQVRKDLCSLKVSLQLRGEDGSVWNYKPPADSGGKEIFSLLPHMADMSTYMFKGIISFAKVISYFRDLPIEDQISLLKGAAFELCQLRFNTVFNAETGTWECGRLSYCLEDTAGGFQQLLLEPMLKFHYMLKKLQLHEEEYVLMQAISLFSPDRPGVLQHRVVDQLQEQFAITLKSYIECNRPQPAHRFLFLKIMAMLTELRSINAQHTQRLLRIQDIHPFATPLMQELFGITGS
Description: Agonist activity at human PXR-gamma expressed in HEK293 cells assessed as transcriptional activity in presence of ursolic acid by Gal4-luciferase reporter assay

physchem = details: PBS buffer, pH 7.4
Description: Solubility of the compound in pH 7.4 PBS buffer

CYP3A4 = CYP3A4 (Homo sapiens, UniProt P08684); assay: in vitro; details: probe testosterone
Sequence of CYP3A4 (P08684 whole entry): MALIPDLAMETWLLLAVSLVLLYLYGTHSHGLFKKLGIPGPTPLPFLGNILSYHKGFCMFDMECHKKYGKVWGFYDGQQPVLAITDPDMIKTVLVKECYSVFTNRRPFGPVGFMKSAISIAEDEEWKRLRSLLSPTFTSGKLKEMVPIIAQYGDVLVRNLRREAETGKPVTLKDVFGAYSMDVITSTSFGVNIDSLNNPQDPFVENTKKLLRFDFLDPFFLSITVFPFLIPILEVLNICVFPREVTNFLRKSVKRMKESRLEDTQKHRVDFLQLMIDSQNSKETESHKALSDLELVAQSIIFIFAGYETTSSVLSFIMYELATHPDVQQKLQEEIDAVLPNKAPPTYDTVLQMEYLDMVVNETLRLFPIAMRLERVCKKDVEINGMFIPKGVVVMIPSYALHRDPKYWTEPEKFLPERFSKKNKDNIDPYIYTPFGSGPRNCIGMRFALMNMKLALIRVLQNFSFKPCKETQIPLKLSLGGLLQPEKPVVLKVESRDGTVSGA
Description: Inhibition of CYP3A4 (unknown origin) assessed as oxidation of testosterone at 10 uM

in vitro = details: human, hepatocytes
[2] = target: T2, Nuclear receptor ROR-gamma (Homo sapiens, UniProt P51449)
T2 sequence (P51449 whole entry): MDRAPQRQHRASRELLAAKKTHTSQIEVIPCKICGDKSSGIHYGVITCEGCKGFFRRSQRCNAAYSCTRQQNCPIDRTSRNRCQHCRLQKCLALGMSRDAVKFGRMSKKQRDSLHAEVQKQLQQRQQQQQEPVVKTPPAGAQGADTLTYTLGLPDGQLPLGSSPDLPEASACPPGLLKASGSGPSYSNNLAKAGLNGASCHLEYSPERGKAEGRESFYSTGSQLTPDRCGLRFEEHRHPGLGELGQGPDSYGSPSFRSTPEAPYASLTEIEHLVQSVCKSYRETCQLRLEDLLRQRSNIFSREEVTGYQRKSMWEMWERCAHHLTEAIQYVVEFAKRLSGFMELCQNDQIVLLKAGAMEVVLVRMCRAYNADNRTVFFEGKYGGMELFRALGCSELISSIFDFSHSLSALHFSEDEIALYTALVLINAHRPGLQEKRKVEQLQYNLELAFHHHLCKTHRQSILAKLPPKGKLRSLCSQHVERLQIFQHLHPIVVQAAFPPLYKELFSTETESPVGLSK
Description: Agonist activity at human ROR-gamma LBD expressed in HEK293 cells assessed as transcriptional activity in presence of ursolic acid by Gal4-luciferase reporter assay

[3] = target: T2, Nuclear receptor ROR-gamma; remark: listed apart in the source
Description: Agonist activity at human His-tagged RORgamma-LBD expressed in Sf9 cells assessed as inhibition of N-terminal biotinylated co-activator SRC1 recruitment in presence of ursolic acid measured after 60 mins by FRET assay

CYP2D6 = CYP2D6 (Homo sapiens, UniProt P10635); assay: in vitro; details: probe testosterone
Sequence of CYP2D6 (P10635 whole entry): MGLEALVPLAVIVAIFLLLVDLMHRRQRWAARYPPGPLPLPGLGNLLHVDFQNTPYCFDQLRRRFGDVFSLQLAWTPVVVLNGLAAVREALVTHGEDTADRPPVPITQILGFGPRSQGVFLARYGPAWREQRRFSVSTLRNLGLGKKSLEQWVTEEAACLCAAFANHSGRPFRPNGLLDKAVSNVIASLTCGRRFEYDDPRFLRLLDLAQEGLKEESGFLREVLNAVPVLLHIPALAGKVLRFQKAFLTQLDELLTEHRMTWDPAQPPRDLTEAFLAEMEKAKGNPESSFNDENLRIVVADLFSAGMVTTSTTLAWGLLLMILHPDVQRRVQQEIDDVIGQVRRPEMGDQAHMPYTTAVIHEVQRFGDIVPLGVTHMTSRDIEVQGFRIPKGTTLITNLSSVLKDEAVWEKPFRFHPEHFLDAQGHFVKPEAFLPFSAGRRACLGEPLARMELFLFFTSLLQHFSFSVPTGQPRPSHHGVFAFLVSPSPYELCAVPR
Description: Inhibition of CYP2D6 (unknown origin) assessed as oxidation of testosterone at 10 uM

| EC50 [1] [nM] | solubility (physchem) [µM] | inhibition at 10 µM (CYP3A4) [%] | hepatocyte CLint (in vitro) [µL/min/1e6 cells] | EC50 [2] [nM] | EC50 [3] [nM] | inhibition at 10 µM (CYP2D6) [%] | Structure (SMILES) |
| --- | --- | --- | --- | --- | --- | --- | --- |
| > 10000 | 277 (≈ 146 µg/mL) | 25 | 31 |  |  |  | O=C(O)CC[C@H]1CN(S(=O)(=O)c2cccc(C(F)(F)F)c2)c2cc(-c3cc(F)cc(F)c3)ccc2O1 |
| > 10000 |  |  |  | > 10000 | 342 |  | O=C(O)CC[C@H]1CN(S(=O)(=O)c2cccc(C(F)(F)F)c2)c2cc(/C=C/c3ccc(Cl)cc3F)ccc2O1 |
| > 10000 |  | 5 |  |  |  | -6 | O=C(O)CC[C@H]1CN(S(=O)(=O)c2cccc(C(F)(F)F)c2)c2cc(-c3cc(F)cc(OC(F)F)c3)ccc2O1 |
| 18000 | 201 (≈ 114 µg/mL) |  |  | 179 | 10 |  | O=C(O)C1(C[C@H]2CN(S(=O)(=O)c3cccc(C(F)(F)F)c3)c3cc(-c4cc(F)ccc4F)ccc3O2)COC1 |
| > 10000 | 309 (≈ 186 µg/mL) | 6 | 23 | 487 | 435 | -1 | C/C(=C\c1ccc2c(c1)N(S(=O)(=O)c1cccc(C(F)(F)F)c1)C[C@H](CCC(=O)O)O2)c1c(Cl)cccc1Cl |
| > 10000 |  | 28.5 |  |  |  | 6 | CC(C)(C[C@H]1CN(S(=O)(=O)c2cccc(C(F)(F)F)c2)c2cc(-c3cccc(Cl)c3F)ccc2O1)C(=O)O |
| > 10000 | 260 (≈ 156 µg/mL) | 18 | 23 | 290 | 108 | 2 | C/C(=C\c1ccc2c(c1)N(S(=O)(=O)c1cccc(C(F)(F)F)c1)C[C@H](CCC(=O)O)O2)c1ccccc1C(F)(F)F |
| 9100 | 248 (≈ 144 µg/mL) | 9 | 9.4 | 280 | 195 | 2 | C/C(=C\c1ccc2c(c1)N(S(=O)(=O)c1cccc(OC(F)F)c1)C[C@H](CCC(=O)O)O2)c1c(F)cccc1Cl |
| > 10000 |  | 19 |  |  |  | 0 | O=C(O)CC[C@H]1CN(S(=O)(=O)c2cccc(C(F)(F)F)c2)c2cc(-c3cccc(F)c3)ccc2O1 |
| > 10000 | 93 (≈ 57.1 µg/mL) | 36 | 13 | 103 | 24 | 9 | O=C(O)C1(C[C@H]2CN(S(=O)(=O)c3cccc(C(F)(F)F)c3)c3cc(-c4cccc(Cl)c4F)ccc3O2)CCOCC1 |
| > 10000 |  | 24 |  |  |  | 0 | O=C(O)CC[C@H]1CN(S(=O)(=O)c2cccc(C(F)(F)F)c2)c2cc(-c3cccc(Cl)c3)ccc2O1 |
| > 10000 |  |  |  |  |  |  | O=S(=O)(c1cccc(C(F)(F)F)c1)N1C[C@H](CC2(CO)COC2)Oc2ccc(Br)cc21 |
| > 10000 |  |  | 18 | 501 | 13 |  | O=C(O)[C@@H](O)CC[C@H]1CN(S(=O)(=O)c2cccc(C(F)(F)F)c2)c2cc(-c3cc(F)ccc3F)ccc2O1 |
| > 10000 |  | 17 |  |  |  | 13 | C[C@@H](C[C@H]1CN(S(=O)(=O)c2cccc(C(F)(F)F)c2)c2cc(-c3cc(F)ccc3F)ccc2O1)C(=O)O |
| > 10000 | 287 (≈ 160 µg/mL) | 19 | 36 | 278 | 10 | 7 | O=C(O)CC[C@H]1CN(S(=O)(=O)c2cccc(C(F)(F)F)c2)c2cc(-c3cccc(OC(F)F)c3)ccc2O1 |
| > 10000 | 280 (≈ 146 µg/mL) | 19 | 44 |  |  | 2 | COc1cccc(-c2ccc3c(c2)N(S(=O)(=O)c2cccc(C(F)(F)F)c2)C[C@H](CCC(=O)O)O3)c1 |
| > 10000 | 239 (≈ 130 µg/mL) | 15 | 27 | 124 | 145 | 6 | O=C(O)CC[C@H]1CN(S(=O)(=O)c2cccc(C(F)(F)F)c2)c2cc(-c3cc(F)ccc3Cl)ccc2O1 |

| EC50 [1] [nM] | solubility (physchem) [µM] | inhibition at 10 µM (CYP3A4) [%] | hepatocyte CLint (in vitro) [µL/min/1e6 cells] | EC50 [2] [nM] | EC50 [3] [nM] | inhibition at 10 µM (CYP2D6) [%] | Structure (SMILES) |
| --- | --- | --- | --- | --- | --- | --- | --- |
|  | 15 (≈ 7.89 µg/mL) | 14 | 38 |  | 27 | -2 | O=C(O)CC[C@H]1CN(S(=O)(=O)c2cccc(C(F)(F)F)c2)c2cc(-c3ccc(Cl)cc3)ccc2O1 |
| > 10000 |  |  |  |  |  |  | COc1cc(F)cc(-c2ccc3c(c2)N(S(=O)(=O)c2cccc(C(F)(F)F)c2)C[C@H](CCC(=O)O)O3)c1 |
| > 10000 | 183 (≈ 103 µg/mL) | 19 | 33 |  |  | 3 | COc1ccccc1/C(C)=C/c1ccc2c(c1)N(S(=O)(=O)c1cccc(C(F)(F)F)c1)C[C@H](CCC(=O)O)O2 |
| > 10000 | 227 (≈ 120 µg/mL) | 13 | 31 | 181 | 8 | 1 | O=C(O)CC[C@H]1CN(S(=O)(=O)c2cccc(C(F)(F)F)c2)c2cc(-c3cc(F)ccc3F)ccc2O1 |
| > 10000 |  | -0.5 |  |  |  | 10 | COc1cc(S(=O)(=O)N2C[C@H](CCC(=O)O)Oc3ccc(/C=C(\C)c4c(F)cccc4Cl)cc32)ccc1F |
|  |  | 0 |  |  |  | -6 | C/C(=C\c1ccc2c(c1)N(S(=O)(=O)c1cccc(C(F)(F)F)c1)C[C@H](CCC(=O)O)O2)c1ccccc1C |
| > 10000 | 273 (≈ 156 µg/mL) | 33 | 26 | 617 | 33 | -5.6 | O=C(O)CC[C@H]1CN(S(=O)(=O)c2cccc(C(F)(F)F)c2)c2cc(/C=C/c3c(F)cccc3Cl)ccc2O1 |
| > 10000 | 43 (≈ 25.7 µg/mL) | 5 | 21 | > 10000 | 5 | 8 | O=C(O)C1(C[C@H]2CN(S(=O)(=O)c3cccc(C(F)(F)F)c3)c3cc(-c4cc(F)ccc4F)ccc3O2)CCOCC1 |
| > 10000 |  | -4 | 31 | > 10000 | 42 | 2 | CC(C)c1ccc(-c2ccc3c(c2)N(S(=O)(=O)c2cccc(C(F)(F)F)c2)C[C@H](CCC(=O)O)O3)cc1 |
| 13000 | 90 (≈ 58.1 µg/mL) | -2 | 9 | 58 | 8 | 4 | O=C(O)C1(C[C@H]2CN(S(=O)(=O)c3cccc(C(F)(F)F)c3)c3cc(-c4cc(F)cc(OC(F)F)c4)ccc3O2)CCOCC1 |
| > 10000 |  | 18 |  |  |  | 11 | C[C@H](C[C@H]1CN(S(=O)(=O)c2cccc(C(F)(F)F)c2)c2cc(-c3cc(F)ccc3F)ccc2O1)C(=O)O |
| > 10000 |  |  |  | > 10000 | > 10000 |  | O=C(O)CC[C@H]1CN(S(=O)(=O)c2cccc(C(F)(F)F)c2)c2cc(-c3cccc(OCCO)c3)ccc2O1 |
| 6700 | 250 (≈ 144 µg/mL) | 4 | 11 | 495 | 269 | 10 | C/C(=C\c1ccc2c(c1)N(S(=O)(=O)c1ccc(F)c(C3CC3)c1)C[C@H](CCC(=O)O)O2)c1c(F)cccc1Cl |
| 6000 | 61 (≈ 36.7 µg/mL) |  | 24 | 411 | 85 |  | C/C(=C\c1ccc2c(c1)N(S(=O)(=O)c1ccc(F)c(C(F)(F)F)c1)C[C@H](CCC(=O)O)O2)c1c(F)cccc1Cl |
| > 10000 |  |  | 13 | 166 | 120 |  | O=C(O)[C@H](O)CC[C@H]1CN(S(=O)(=O)c2cccc(C(F)(F)F)c2)c2cc(-c3cc(F)ccc3F)ccc2O1 |
| > 10000 | 267 (≈ 142 µg/mL) | -3 | 22 |  |  | 3 | C/C(=C\c1ccc2c(c1)N(S(=O)(=O)c1cccc(C(F)(F)F)c1)C[C@H](CCC(=O)O)O2)c1ccccc1 |
| > 10000 | 309 (≈ 175 µg/mL) | 7 | 22 |  |  | 13 | C/C(=C\c1ccc2c(c1)N(S(=O)(=O)c1cccc(C(F)(F)F)c1)C[C@H](CCC(=O)O)O2)c1ccccc1Cl |

— ChEMBL document CHEMBL4837250, “Discovery of LYC-55716: A Potent, Selective, and Orally Bioavailable Retinoic Acid Receptor-Related Orphan Receptor-γ (RORγ) Agonist for Use in Treating Cancer” (J Med Chem, 2021)
